Data taken from US20220296604A1, “INDOLE COMPOUNDS AS MODULATORS OF RAGE ACTIVITY AND USES THEREOF” (NEW YORK UNIVERSITY, priority 2019, published 2022).

Target: T1, RAGE tail (Homo sapiens, UniProt Q15109)
T1 construct: The cytoplasmic domain of RAGE, C terminal RAGE or ctRAGE (RAGE tail) is critical for RAGE-dependent signal transduction
T1 sequence (Q15109 364-404 limits assumed): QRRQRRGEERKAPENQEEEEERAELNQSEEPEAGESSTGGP
Test: RAGE tail fluorescence titration (fluorescence quenching), Kd determination
Conditions: compound titrated into 100 nM solution of RAGE tail, NB = binding not detected
Protocol: Binding affinities of small molecules for either CT-RAGE or FH1 are determined by performing fluorescence titrations to generate binding isotherms and standard SPR experiments. […]
Compound D-IIIa was titrated into 100 nM solution of RAGE tail. Fluorescence quenching was used to determine binding. R^2 quality factor of the fitting was 0.94 (FIG. 1).
Compound D-IIIb was titrated into 100 nM solution of RAGE tail. Fluorescence quenching was used to determine binding. R^2 quality factor of the fitting was 0.97 (FIG. 2).
Compound D-IIIc was titrated into 100 nM solution of RAGE tail. Fluorescence quenching was used to determine binding. R^2 quality factor of the fitting was 0.98 (FIG. 3).
Compound D-IIId was titrated into 100 nM solution of RAGE tail. Fluorescence quenching was used to determine binding. R^2 quality factor of the fitting was 0.99 (FIG. 4).
Compound D-IIIe was titrated into 100 nM solution of RAGE tail. Fluorescence quenching was used to determine binding. R^2 quality factor of the fitting was 0.98 (FIG. 5).
Compound D-IIIi was titrated into 100 nM solution of RAGE tail. Fluorescence quenching was used to determine binding. R^2 quality factor of the fitting was 0.90 (FIG. 6).
Compound D-IIIk was titrated into 100 nM solution of RAGE tail. Fluorescence quenching was used to determine binding. R^2 quality factor of the fitting was 0.89 (FIG. 7).
Compound D-IIIq was titrated into 100 nM solution of RAGE tail. Fluorescence quenching was used to determine binding. R^2 quality factor of the fitting was 0.82 (FIG. 8).
Compound D-IIIv was titrated into 100 nM solution of RAGE tail. Fluorescence quenching was used to determine binding. R^2 quality factor of the fitting was 0.93 (FIG. 9).
Compound D-IIIw was titrated into 100 nM solution of RAGE tail. Fluorescence quenching was used to determine binding. R^2 quality factor of the fitting was 0.94 (FIG. 10).
Compound D-IVa was titrated into 100 nM solution of RAGE tail. Fluorescence quenching was used to determine binding. R^2 quality factor of the fitting was 0.94 (FIG. 11).
Compound D-IVb was titrated into 100 nM solution of RAGE tail. Fluorescence quenching was used to determine binding. R^2 quality factor of the fitting was 0.93 (FIG. 12).
Compound D-IVc was titrated into 100 nM solution of RAGE tail. Fluorescence quenching was used to determine binding. R^2 quality factor of the fitting was 0.92 (FIG. 13).
Compound D-IVd was titrated into 100 nM solution of RAGE tail. Fluorescence quenching was used to determine binding. R^2 quality factor of the fitting was 0.94 (FIG. 14).
Compound D-IVe was titrated into 100 nM solution of RAGE tail. Fluorescence quenching was used to determine binding. R^2 quality factor of the fitting was 0.93 (FIG. 15).
Compound D-IVf was titrated into 100 nM solution of RAGE tail. Fluorescence quenching was used to determine binding. R^2 quality factor of the fitting was 0.95 (FIG. 16).
Compound D-IVg was titrated into 100 nM solution of RAGE tail. Fluorescence quenching was used to determine binding. R^2 quality factor of the fitting was 0.89 (FIG. 17).
Compound D-IVh was titrated into 100 nM solution of RAGE tail. Fluorescence quenching was used to determine binding. R^2 quality factor of the fitting was 0.93 (FIG. 18).

| Kd [µM] | SMILES |
| --- | --- |
| 0.004 | Cc1c(C)n(CC(C#N)CN2CCOCC2)c2ccccc12 [Compound D-IIIb] |
| 0.009 | CC(=O)NC(CN1CCOCC1)Cn1c(C)c(C)c2ccccc21 [Compound D-IIIc, N-(1-(2,3-dimethyl-1H-indol-1-yl)-3-morphohnopropan-2-yl)acetamide] |
| 0.011 | Cc1c(CC(O)CN2CCOCC2)c2ccccc2n1C(C)C [Compound D-IIIq] |
| 0.072 | OC(CN1CCCCC1)Cn1c2c(c3ccccc31)CCCC2 [Compound D-IVa] |
| 0.011 | NC(=O)C1CCCN(CC(O)Cn2c3c(c4ccccc42)CCCC3)C1 [Compound D-IVb] |
| 0.018 | O=C(O)C1CCCN(CC(O)Cn2c3c(c4ccccc42)CCCC3)C1 [Compound D-IVc] |
| 0.012 | Cc1c(C)n(CC(C#N)CN2CCCC(C(=O)O)C2)c2ccccc12 [Compound D-IVd] |
| 0.0026 | Cc1c(C)n(CC(C#N)CN2CCCC(C(N)=O)C2)c2ccccc12 [Compound D-IVe] |
| 0.0046 | CC(=O)NC(CN1CCCC(C(=O)O)C1)Cn1c(C)c(C)c2ccccc21 [Compound D-IVf] |
| 0.0077 | Cc1c(CC(O)CN2CCCC(C(=O)O)C2)c2ccccc2n1C [Compound D-IVh] |

The next lines start with the molecule.

| SMILES | Kd [µM] |
| --- | --- |
| Cc1c(C)n(CC(O)CN2CCOCC2)c2ccc(F)cc12 [Compound D-IIIa, 1-(5-fluoro-2,3-dimethyl-1H-indol-1-yl)-3-morpholinopropan-2-ol] | 0.082 |
| Cc1c(C)n(CC(O)CN2CCOCC2)c2cc(F)ccc12 [Compound D-IIId] | 0.055 |
| Cc1c(CC(O)CN2CCOCC2)c2ccccc2n1C [Compound D-IIIe, 1-(1,2-dimethyl-1H-indol-3-yl)-3-morpholinopropan-2-ol] | 0.02 |
| CC(=O)NC(CN1CCOCC1)Cn1c(C)c(C)c2cc(F)ccc21 [Compound D-IIIi] | 0.009 |
| Cc1c(C)n(CC(CN2CCOCC2)NC(=O)C(C)C)c2ccccc12 [Compound D-IIIk] | 0.062 |
| Cc1c(CC(O)CN2CCOCC2)c2ccc(F)cc2n1C [Compound D-IIIv] | 0.014 |
| Cc1c(C)n(CC(CC#N)CN2CCOCC2)c2ccccc12 [Compound D-IIIw] | 0.0043 |
| CC(=O)NC(CN1CCCC(C(N)=O)C1)Cn1c(C)c(C)c2ccccc21 [Compound D-IVg] | 0.012 |
